{"source": "patent US10633419B2", "about": "“Immunomodulators” (BRISTOL-MYERS SQUIBB COMPANY, priority 2014, dated 2020)", "note": "Starred links: 1 amine or outer side, 2 acyl side, 3 side chain; linkers in the order of their positions; H or OH if unused. Positions of bridges follow the written chain, without caps; N, C: chain ends. Non-standard residues stand in square brackets, D forms with d. Residues, ends and D or L forms follow the SMILES beside them. ξ: configuration not given here. *: point of attachment. X31 = CCCCCCCCCCCCCCCC(=O)NCCCC[C@H](NC(=O)[C@H](CC(=O)O)CC(=O)CCOCCOCCOCCOCCOCCOCCN*)C(N)=O; εLys(α-Octadecanedioyl) = O=C(O)CCCCCCCCCCCCCCCCC(=O)N[C@@H](CCCCN*)C(=O)O; X6 = O=C(O)CCCCCCCCCCCCCCCCC(=O)N[C@@H](CCC(=O)NCCCOCCOCCOCCCN*)C(=O)O; X13 = O=C(O)CCCCCCCCCCCCCCC(=O)N[C@@H](CCC(=O)NCCCOCCOCCOCCCN*)C(=O)O; Trp(1-CH2COOH) = N[C@@H](Cc1cn(CC(=O)O)c2ccccc12)C(=O)O; X9 = O=C(O)CCCCCCCCCCCCCCCCC(=O)N[C@@H](CCN*)C(=O)O; Phe(4-F) = N[C@@H](Cc1ccc(F)cc1)C(=O)O; d(cisHyp) = O=C(O)[C@H]1C[C@@H](O)CN1; βAsp = O=C(O)[C@H](CC(=O)[*:2])N[*:1]; NH(CH2)12COOH = O=C(O)CCCCCCCCCCCCN*; Hyp = O=C(O)[C@@H]1C[C@@H](O)CN1; NHhexadecyl = CCCCCCCCCCCCCCCCN*; NMeNle = CCCC[C@H](NC)C(=O)O; Pip = O=C(O)[C@@H]1CCCCN1; NMeA = CN[C@@H](C)C(=O)O; Aun = NCCCCCCCCCCC(=O)O; Dab = NCC[C@H](N)C(=O)O; Dap = NC[C@H](N)C(=O)O; GABA = NCCCC(=O)O; ξC = NC(CS)C(=O)O", "data": [{"target": "T1, PD-L1 (Homo sapiens, UniProt Q9NZQ7)", "T1 construct": "hPDL1(19-239)-TVMV-His; made in house; host or cells: HEK293T", "T1 sequence (Q9NZQ7 with tags, fused parts or gaps)": "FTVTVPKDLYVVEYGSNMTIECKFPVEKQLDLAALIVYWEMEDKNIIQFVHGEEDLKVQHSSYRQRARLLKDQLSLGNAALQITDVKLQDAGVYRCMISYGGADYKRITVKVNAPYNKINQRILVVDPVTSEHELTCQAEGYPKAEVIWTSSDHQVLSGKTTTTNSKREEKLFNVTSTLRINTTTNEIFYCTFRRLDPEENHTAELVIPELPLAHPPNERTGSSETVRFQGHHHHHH", "experiment": "PD-1/PD-L1 Homogenous Time-Resolved Fluorescence (HTRF) binding assay (PD-1-Ig/PD-L1-His)", "conditions": "inhibition of PD-1-Ig binding to PD-L1-TVMV-His; value given as number; read-out: HTRF IC50", "procedure,_shortened": "(§1)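 HTRF competition in dPBS with 0.1% BSA and 0.05% Tween-20: 20 nM PD-1-Ig added after 15 min compound pre-incubation with 10 nM PD-L1-His, then another 15 min. Signal (665/620 nm) after 30 min with APC anti-His (20 nM) and Eu anti-Ig (1 nM).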", "units": {"IC50": "µM"}, "values": [{"smiles": "CCCC[C@H]1C(=O)N(C)[C@@H](CCCC)C(=O)N[C@@H](CC(C)C)C(=O)N[C@H](C(=O)NCC(=O)N[C@@H](CC(=O)NCCCC(=O)NCC[C@H](NC(=O)CCCCCCCCCCCCCCCCC(=O)O)C(=O)O)C(=O)O)CSCC(=O)N[C@@H](Cc2ccc(O)cc2)C(=O)N2CCCC[C@H]2C(=O)N[C@@H](CC(N)=O)C(=O)N2CCC[C@H]2C(=O)N[C@@H](CN)C(=O)N[C@@H](CC(C)C)C(=O)N2C[C@H](O)C[C@H]2C(=O)N[C@@H](Cc2c[nH]c3ccccc23)C(=O)N[C@@H](CCN)C(=O)N[C@@H](Cc2cn(CC(=O)O)c3ccccc23)C(=O)N1C", "note": "[Example 13162] ({CH2CO}-Y[Pip]NP[Dap]L[Hyp]W[Dab][Trp(1-CH2COOH)][NMeNle][NMeNle]LCG[βAsp][GABA]-X9; thioether N-14)", "IC50": 0.0038}]}, {"target": "T1, PD-L1", "experiment": "PD-1/PD-L1 Homogenous Time-Resolved Fluorescence (HTRF) binding assay (PD-1-Ig/PD-L1-His)", "conditions": "inhibition of PD-1-Ig binding to PD-L1-TVMV-His; value given as range class; read-out: HTRF IC50", "procedure,_shortened": "as §1", "units": {"IC50": "µM"}, "values": [{"smiles": "CCCC[C@H]1C(=O)N(C)[C@@H](CCCC)C(=O)N[C@@H](CC(C)C)C(=O)N[C@H](C(=O)NCC(=O)N[C@@H](CC(=O)O)C(=O)N[C@@H](CC(=O)O)C(=O)NCCCCCCCCCCCCC(=O)O)CSCC(=O)N[C@@H](Cc2ccc(O)cc2)C(=O)N(C)[C@@H](C)C(=O)N[C@@H](CC(N)=O)C(=O)N2CCC[C@H]2C(=O)N[C@@H](CN)C(=O)N[C@@H](CC(C)C)C(=O)N2C[C@H](O)C[C@H]2C(=O)N[C@@H](Cc2c[nH]c3ccccc23)C(=O)N[C@@H](CCN)C(=O)N[C@@H](Cc2cn(CC(=O)O)c3ccccc23)C(=O)N1C", "note": "[Example 11217] ({CH2CO}-Y[NMeA]NP[Dap]L[Hyp]W[Dab][Trp(1-CH2COOH)][NMeNle][NMeNle]LCGDD-{NH(CH2)12COOH}; thioether N-14)", "IC50": "0.01 to 0.099"}, {"smiles": "CCCC[C@H]1C(=O)N(C)[C@@H](CCCC)C(=O)N[C@@H](CC(C)C)C(=O)N[C@H](C(=O)NCCCOCCOCCOCCCNC(=O)CC[C@H](NC(=O)CCCCCCCCCCCCCCC(=O)O)C(=O)O)CSCC(=O)N[C@@H](Cc2ccc(O)cc2)C(=O)N(C)[C@@H](C)C(=O)N[C@@H](CC(N)=O)C(=O)N2CCC[C@H]2C(=O)N[C@@H](CN)C(=O)N[C@@H](CC(C)C)C(=O)N2C[C@H](O)C[C@@H]2C(=O)N[C@@H](Cc2c[nH]c3ccccc23)C(=O)N[C@@H](CCN)C(=O)N[C@@H](Cc2cn(CC(=O)O)c3ccccc23)C(=O)N1C", "note": "[Example 11161] ({CH2CO}-Y[NMeA]NP[Dap]L[d(cisHyp)]W[Dab][Trp(1-CH2COOH)][NMeNle][NMeNle]LC-X13; thioether N-14)", "IC50": "0.1 to 1.6"}, {"smiles": "CCCC[C@H]1C(=O)N(C)[C@@H](CCCC)C(=O)N[C@@H](CC(C)C)C(=O)N[C@H](C(=O)NCC(=O)N[C@@H](CCC(=O)O)C(=O)NCCCOCCOCCOCCCNC(=O)CC[C@H](NC(=O)CCCCCCCCCCCCCCCCC(=O)O)C(=O)O)CSCC(=O)N[C@@H](Cc2ccc(F)cc2)C(=O)N2CCCC[C@H]2C(=O)N[C@@H](CC(=O)O)C(=O)N2CCC[C@H]2C(=O)N[C@@H](CN)C(=O)N[C@@H](CCC(=O)O)C(=O)N2C[C@H](O)C[C@H]2C(=O)N[C@@H](Cc2c[nH]c3ccccc23)C(=O)N[C@@H](CCN)C(=O)N[C@@H](Cc2cn(CC(=O)O)c3ccccc23)C(=O)N1C", "note": "[Example 11265] ({CH2CO}-[Phe(4-F)][Pip]DP[Dap]E[Hyp]W[Dab][Trp(1-CH2COOH)][NMeNle][NMeNle]LCGE-X6; thioether N-14)", "IC50": "0.01 to 0.099"}, {"smiles": "CCCCCCCCCCCCCCCCNC(=O)CCCCCCCCCCNC(=O)CNC(=O)[C@@H]1CSCC(=O)N[C@@H](Cc2ccc(O)cc2)C(=O)N(C)[C@@H](C)C(=O)N[C@@H](CC(N)=O)C(=O)N2CCC[C@H]2C(=O)N[C@@H](Cc2cnc[nH]2)C(=O)N[C@@H](CC(C)C)C(=O)N2C[C@H](O)C[C@H]2C(=O)N[C@@H](Cc2c[nH]c3ccccc23)C(=O)N[C@@H](CO)C(=O)N[C@@H](Cc2c[nH]c3ccccc23)C(=O)N(C)[C@@H](CCCC)C(=O)N(C)[C@@H](CCCC)C(=O)N[C@@H](CCCNC(=N)N)C(=O)N1", "note": "[Example 11112] ({CH2CO}-Y[NMeA]NPHL[Hyp]WSW[NMeNle][NMeNle]RCG[Aun]-NHhexadecyl; thioether N-14)", "IC50": "0.1 to 1.6"}, {"smiles": "CCCC[C@H]1C(=O)N(C)[C@@H](CCCC)C(=O)N[C@@H](CC(C)C)C(=O)N[C@H](C(=O)NCC(=O)NCCCC[C@H](NC(=O)CCCCCCCCCCCCCCCCC(=O)O)C(=O)O)CSCC(=O)N[C@@H](Cc2ccc(O)cc2)C(=O)N(C)[C@@H](C)C(=O)N[C@@H](CC(N)=O)C(=O)N2CCC[C@H]2C(=O)N[C@@H](CN)C(=O)N[C@@H](CC(C)C)C(=O)N2C[C@H](O)C[C@@H]2C(=O)N[C@@H](Cc2c[nH]c3ccccc23)C(=O)N[C@@H](CCN)C(=O)N[C@@H](Cc2cn(CC(=O)O)c3ccccc23)C(=O)N1C", "note": "[Example 11141] ({CH2CO}-Y[NMeA]NP[Dap]L[d(cisHyp)]W[Dab][Trp(1-CH2COOH)][NMeNle][NMeNle]LCG-{εLys(α-Octadecanedioyl)}; thioether N-14)", "IC50": "0.01 to 0.099"}, {"smiles": "CCCC[C@H]1C(=O)N(C)[C@@H](CCCC)C(=O)N[C@@H](CC(C)C)C(=O)N[C@H](C(=O)NCCCCCCCCCCC(=O)N[C@@H](CCC(=O)O)C(=O)O)CSCC(=O)N[C@@H](Cc2ccc(O)cc2)C(=O)N(C)[C@@H](C)C(=O)N[C@@H](CC(N)=O)C(=O)N2CCC[C@H]2C(=O)N[C@@H](CN)C(=O)N[C@@H](CCC(N)=O)C(=O)N2C[C@H](O)C[C@H]2C(=O)N[C@@H](Cc2c[nH]c3ccccc23)C(=O)N[C@@H](CO)C(=O)N[C@@H](Cc2cn(CC(=O)O)c3ccccc23)C(=O)N1C", "note": "[Example 11132] ({CH2CO}-Y[NMeA]NP[Dap]Q[Hyp]WS[Trp(1-CH2COOH)][NMeNle][NMeNle]LC[Aun]E-OH; thioether N-14)", "IC50": "0.01 to 0.099"}, {"smiles": "CCCC[C@H]1C(=O)N(C)[C@@H](CCCC)C(=O)N[C@@H](CCC(=O)O)C(=O)N[C@H](C(=O)NCC(=O)N[C@@H](Cc2cn(CCOCCOCCOCCOCCOCCOCCOCCOCCOCCOCCOCCNC(=O)CC[C@H](NC(=O)CCCCCCCCCCCCCCCCC(=O)O)C(=O)O)nn2)C(=O)O)CSCC(=O)N[C@@H](Cc2ccc(O)cc2)C(=O)N2CCCC[C@H]2C(=O)N[C@@H](CC(N)=O)C(=O)N2CCC[C@H]2C(=O)N[C@@H](CNC)C(=O)N[C@@H](CC(C)C)C(=O)N2C[C@H](O)C[C@H]2C(=O)N[C@@H](Cc2c[nH]c3ccccc23)C(=O)N[C@@H](CCN)C(=O)N[C@@H](Cc2cn(CC(=O)O)c3ccccc23)C(=O)N1C", "note": "[Example 14107]", "IC50": "0.1 to 1.6"}, {"smiles": "CCCCCCCCCCCCCCCC(=O)N[C@@H](CCn1cc(C[C@H](NC(=O)CNC(=O)[C@@H]2CSCC(=O)N[C@@H](Cc3ccc(O)cc3)C(=O)N(C)[C@@H](C)C(=O)N[C@@H](CC(=O)O)C(=O)N3CCC[C@H]3C(=O)N[C@@H](Cc3c[nH]cn3)C(=O)N[C@@H](CCCCN)C(=O)N3C[C@H](O)C[C@H]3C(=O)N[C@@H](Cc3c[nH]c4ccccc34)C(=O)N[C@@H](CCCCN)C(=O)N[C@@H](Cc3c[nH]c4ccccc34)C(=O)N(C)[C@@H](CCCC)C(=O)N(C)[C@@H](CCCC)C(=O)N[C@@H](CCC(=O)O)C(=O)N2)C(=O)N[C@@H](CC(=O)O)C(N)=O)nn1)C(=O)O", "note": "[Example 14061]", "IC50": "0.01 to 0.099"}, {"smiles": "CCCCCCCCCCCCCCCC(=O)NCCCC[C@H](NC(=O)[C@H](CC(=O)O)CC(=O)CCOCCOCCOCCOCCOCCOCCNC(=O)[C@H](CC(=O)O)NC(=O)CNC(=O)C1CSCC(=O)N[C@@H](Cc2ccc(O)cc2)C(=O)N(C)[C@@H](C)C(=O)N[C@@H](CC(=O)O)C(=O)N2CCC[C@H]2C(=O)N[C@@H](Cc2cnc[nH]2)C(=O)N[C@@H](CC(C)C)C(=O)N2C[C@H](O)C[C@H]2C(=O)N[C@@H](Cc2c[nH]c3ccccc23)C(=O)N[C@@H](CO)C(=O)N[C@@H](Cc2c[nH]c3ccccc23)C(=O)N(C)[C@@H](CCCC)C(=O)N(C)[C@@H](CCCC)C(=O)N[C@@H](CCCNC(=N)N)C(=O)N1)C(N)=O", "note": "(stereo partly shown) [Example 11018] ({CH2CO}-Y[NMeA]DPHL[Hyp]WSW[NMeNle][NMeNle]R[ξC]GD-X31; thioether N-14)", "IC50": "0.01 to 0.099"}]}]}
